In patent US20240390434A1, “PROBIOTIC ENHANCERS AND USES THEREOF” (Blis Technologies Limited, priority 2021, published 2024):
Where two headings read alike, the source gives them in different places.

Key:
salB = type: cell-based, S. salivarius K12; conditions: K12
Method: Method: CABCa agar plates were prepared either with or without 2.5% w/w raffinose, 0.5% w/w galactose, combined 2.5% w/w raffinose and 0.5% w/w galactose, 0.5% w/w glucose or 2.5% w/w glucose by the addition of 0.5% (w/v) calcium carbonate to solid CAB agar in bottles and then melted by autoclaving at 110° C. for 10 mins. Once cooled, filter sterilised solutions of the saccharides or distilled water were added and mixed and then 20 ml pipetted into petri dishes.
A S. salivarius K12 raw ingredient suspension was prepared in PBS containing approx. 1×10^8cfu/ml. 100p of this suspension was spread evenly onto control and test agar plates. Plates were incubated at 37° C. with 5% CO2 for approx, 19 hrs.
Bacterial growth from each plate was collected using a sterile cotton swab and resuspended into 1 ml PBS in a screw capped tube. The bacterial cells were then pelleted by centrifugation at 13,000 rpm for 1 minute at 4° C. The supernatant was removed, and the cell pellet was resuspended in 1 ml of TRIzol reagent. The bacterial cell suspension was transferred into a 2 ml screw-capped tube containing 0.1 mm Zirconia/silicon beads. […]
The cDNA samples from K12 raw ingredient grown on the CABCa control plates and CABCa supplemented with the various saccharides were then analysed by qPCR for the levels of gene expression of the following genes: salA, salB, salQ and ureC. […]

indicator strains = assay: Deferred antagonism assay, producer S. salivarius M18: total strains inhibited; type: cell-based
Method: (§1) 1-2 producer strain colonies were transferred from a stock plate into 900 μL of suspension solution using a fresh cotton swab. Following this, suspensions were vortexed, and a sample was inoculated onto solid culture media using a fresh cotton swab. The inoculation was a streak that runs diametrically across the agar plate in a 1.5 cm wide strip. The plate was then incubated. Following incubation all visible colonies were removed by swabbing them from the agar surface. The plates were then treated with chloroform by dispensing 2 ml of chloroform onto 4 cm×4 cm piece of cloth and sealing the inverted agar plate on top for 30 minutes. The plates were then air dried for 30 minutes following chloroforming. 1-2 indicator strain colonies were then transferred from a stock plate into complementary suspension solution. The suspensions were then vortexed, and a sample was inoculated onto the same agar surface. These samples were streaked in a perpendicular direction to the initial producer streak.
(§2) Each indicator streak was prepared with fresh a suspension containing cells from a corresponding stock plate containing the indicator strain of interest. Indicator strains suspension samples were transferred using a fresh cotton swab. Results were measured by qualitatively reviewing the subsequent (if any) sizes of the zones of inhibition (ZOI) of indicator strain colony growth. A positive result is when there is a distinctive reduction or complete inhibition of indicator colony growth on the culture medium.
(§3) CABCa agar plates containing various concentrations of saccharide were prepared according to the methods described in Method 1. Producer strains were transferred from stock agar plates into 900 μL THB using a fresh cotton swab. A plastic spread plater was cut to approximately 1.2 cm width and then dipped into ethanol and left to air dry to ensure sterility. A 100 μL sample of the producer strain suspension was then dispensed onto the agar surface in a straight line running diametrically across the agar surface in (approximately) 20 μL spots. The spots were spaced approximately 1.5 cm apart from each other. The plastic spreader was then used to evenly distribute the spots across the agar surface in a 1.5 cm wide strip. This step was taken to ensure an even producer streak was inoculated onto the agar surface and provided an approximate measure of the initial inoculum concentration. Separate plastic spreaders were used for samples containing different producer strains. The samples were left to soak into the agar surface until there was no visible liquid remaining on the agar surface (approximately 20 minutes). Following producer streak preparations, the deferred antagonism assay protocol was followed as per Method 2. Results were recorded by measuring the size of the zone of inhibition (ZOI) in mm.
A dose response assay was carried out according to method 3 above, except a 1.2 cm streak was used. For the individual saccharide testing the pH of the producer streak was adjusted after the growth of producer to change the acidic conditions.
A deferred antagonism assay was conducted using K12 or M18 raw ingredient suspended in Todd Hewitt broth (THB). This was spread as a 1.2 cm streak containing approximately 1-2×10^6 cfu down the middle of a CABCa control or CABCa galactose supplemented test plate. After 18 hrs growth at 37° C. with 5% CO2, bacterial growth was removed, and the pH of the agar in the initial streak was measured and adjusted to a pH of 6.5-7.5 using 0.5M sodium carbonate pH11 before sterilizing the agar surface using chloroform vapor. Bacterial test strains were suspended in i-THB before being swabbed across the plates perpendicular to the initial streak. Plates were incubated for a further 18 hrs incubation at 37° C. with 5% CO2 before measuring (mm) any zones of inhibition for each test strain, […]

S. pyogenes M76 = assay: Dose response deferred antagonism assay, producer K12; type: cell-based
Method: as §1, §2, §3
(§4) The results presented in FIG. 1 and FIG. 2 illustrate the change in ear, nose, and throat (ENT) microorganism indicator strain zone of inhibition sizes. When K12 was cultured in the presence of various concentrations of galactose the ZOI sizes for several of the ENTR indicator strains increased markedly from the control condition (FIG. 1). M. catarrhalis TW1 and TW2 display similar changes in the ZOI sizes across the various concentrations of galactose. The change in TW1 ZOI size peaks at 1.5% galactose(w/v) (12 mm) then decreases at 2.0% galactose (w/v), whereas the change of TW2 ZOI size peaks at 2.0% galactose (w/v) (11 mm). The change in L. lactis T-21 ZOI sizes trend upwards relative to the concentration of galactose present in the culture medium.

M. catarrhalis TW2 = assay: as above; type: cell-based; conditions: peak
Method: as §1, §2, §3, §4

L. lactis T-21 = assay: as above; type: cell-based
Method: as §1, §2, §3, §4

[1] = test system: indicator bacterial test strains; assay: Inhibitory activity of freeze dried raw ingredient powder, K12 and M18 combination; type: cell-based; conditions: galactose 0.5% w/w; raffinose 2.5% w/w; or combination
Method: (§5) Method: The amount of raffinose and galactose used was calculated based on the volume of the area of the producer streak, (which was calculated to be 4.25 g) to allow for the absorption of the saccharides into the agar. Based on this, amount of 0.021 g (i.e. 0.5% w/w galactose of 4.25 g agar volume) of galactose, 0.11 g (i.e 2.5% w/w) of raffinose and the combination of galactose (0.5% w/w) and raffinose (2.5% w/w) (0.13 g total) were weighed into sterile containers. K12 and/or M18 raw ingredient were suspended and diluted with sterile distilled water to a concentration of 1-2×10^6 cfu/100 μl. Then, […] of K12 only, M18 only, and K12±M18 suspensions were spread as a 1 cm streak down the middle of a CABCa agar plate using a sterile spreader. […] Bacterial growth was then removed using a microscope slide, and the pH of the agar in the producer streak area was measured and adjusted to pH 6.5-7.5 using 0.5M sodium carbonate (pH 11) before surface sterilizing the plates with chloroform vapour. […] Zones of inhibition for each test organism were then measured in mm using a ruler. The amount of raffinose and galactose to be used was calculated based on the volume of the area of the producer streak, (which was calculated to be 4.25 g) to allow for absorption into the agar.

[2] = test system: S. pyogenes strain as well as other microorganisms; assay: Inhibitory activity of M18 grown in M17 broth with saccharides; type: cell-based; conditions: saccharide 0.83% or 2.5% w/v, vs control
[3] = test system: indicator bacterial test strains; assay: Inhibitory activity of freeze dried raw ingredient powder, M18; type: cell-based; conditions: galactose 0.5% w/w; raffinose 2.5% w/w; or combination
Method: as §5

For `O=C[C@H](O)[C@@H](O)[C@@H](O)[C@H](O)CO` [Galactose, D-galactose], the “increase in gene expression of salB relative to no sugar control” value (salB; 0.5% w/w sugar in CABCa agar) was 641 fold, the Total stains inhibited (indicator strains; Galactose 0.5% w/w) was 5/7 and the Total stains inhibited (indicator strains; Galactose 1.25% w/w) was 4/7. The Total stains inhibited (indicator strains; Galactose 1.7% w/w) was 1/7, the Total stains inhibited (indicator strains; Galactose 2.5% w/w) was 2/7 and the Total stains inhibited (indicator strains; Galactose 3.3% w/w) was 5/7. The Total stains inhibited (indicator strains; Galactose 5% w/w) was 2/7, the “change in M76 ZOI size” value (S. pyogenes M76; between 1.5% and 2.0% galactose) was 11 mm and the “change of TW2 ZOI size” value (M. catarrhalis TW2; 2.0% galactose (w/v)) was 11 mm. For the same molecule, the “change in L. lactis T-21 ZOI sizes” value (L. lactis T-21; relative to the concentration of galactose) was “trend upwards”, the “inhibitory activity of freeze-dried raw ingredient powder of K12 and M18 combination” value [1] was “induced the inhibitory activity” and the “inhibitory activity of M18 grown in presence of saccharide” value [2] was “greater inhibitory activity”. The “inhibitory activity of freeze-dried raw ingredient powder of M18” value [3] was “induced the inhibitory activity”.

For `OC[C@H]1O[C@H](OC[C@H]2O[C@H](O[C@]3(CO)O[C@H](CO)[C@@H](O)[C@@H]3O)[C@H](O)[C@@H](O)[C@@H]2O)[C@H](O)[C@@H](O)[C@H]1O` [Raffinose, D-(+) Raffinose pentahydrate], the “increase in gene expression of salB relative to no sugar control” value (salB; 2.5% w/w sugar in CABCa agar) was 241 fold, the “Total number of strains inhibited” value (indicator strains; Raffinose 1.7% wt) was 6 and the “Total number of strains inhibited” value (indicator strains; Raffinose 1.7% wt, pH adjusted) was 6. For the same molecule, the “Total number of strains inhibited” value (indicator strains; Raffinose 2.5% wt) was 7, the “Total number of strains inhibited” value (indicator strains; Raffinose 2.5% wt, pH adjusted) was 6 and the “Total number of strains inhibited” value (indicator strains; Raffinose 3.3% wt) was 6. For the same molecule, the “Total number of strains inhibited” value (indicator strains; Raffinose 3.3% wt, pH adjusted) was 6, the “Total number of strains inhibited” value (indicator strains; Raffinose 5% wt) was 7 and the “Total number of strains inhibited” value (indicator strains; Raffinose 5% wt, pH adjusted) was 6. The “Total number of strains inhibited” value (indicator strains; Raffinose 10% wt) was 2, the “Total number of strains inhibited” value (indicator strains; Raffinose 10% wt, pH adjusted) was 1 and the “change in ZOI size for S. pyogenes M76” value (S. pyogenes M76; 1.5% raffinose (w/v), peak) was 13 mm. The “change in ZOI size M. catarrhalis TW2” value (M. catarrhalis TW2; 2.0% (w/v) raffinose) was 13 mm, the “change in L. lactis ZOI size” value (L. lactis T-21; 0.1% raffinose (w/v)) was 15 mm and the “change in L. lactis ZOI size” value (L. lactis T-21; 1.0% raffinose (w/v)) was 16 mm. For the same molecule, the “inhibitory activity of freeze-dried raw ingredient powder of K12 and M18 combination” value [1] was “induced the inhibitory activity”, the “inhibitory activity of M18 grown in presence of saccharide” value [2] was “greater inhibitory activity” and the “inhibitory activity of freeze-dried raw ingredient powder of M18” value [3] was “induced the inhibitory activity”.
